From patent US20030157583A1, “Methods for determining squalene synthase activity” (priority 2001, published 2003)

Tests used:
[1] = molecular target: T1, truncated squalene synthase (tSqS) (Arabidopsis thaliana, UniProt P53799); assay: biochemical
T1 sequence (P53799 1-388 limits assumed): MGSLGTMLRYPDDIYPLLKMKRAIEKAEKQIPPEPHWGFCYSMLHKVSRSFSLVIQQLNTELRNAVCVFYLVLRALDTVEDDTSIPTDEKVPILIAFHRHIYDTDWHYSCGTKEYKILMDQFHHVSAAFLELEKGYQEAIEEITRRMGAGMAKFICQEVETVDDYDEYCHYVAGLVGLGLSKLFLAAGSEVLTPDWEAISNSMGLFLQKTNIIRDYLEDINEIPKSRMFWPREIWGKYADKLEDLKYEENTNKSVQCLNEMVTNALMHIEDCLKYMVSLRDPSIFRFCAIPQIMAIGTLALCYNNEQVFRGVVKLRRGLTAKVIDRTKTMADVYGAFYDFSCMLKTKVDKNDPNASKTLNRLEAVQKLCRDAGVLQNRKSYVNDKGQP
Source text: The conversion of the intermediate PSPP into squalene requires magnesium as a cofactor.

[2] = substrate: CC(C)=CCC/C(C)=C/CC/C(C)=C/CO[P@@](=O)(O)OP(=O)(O)O; assay: purified protein, by the assay type; conditions: other: initial velocity vs FPP concentration, 50 ng tSqS, 100 μM NADPH, 10 mM MgCl2, 37° C., pH 7.5

For O=C(O)CN(CCN(CC(=O)O)CC(=O)O)CC(=O)O [EDTA], the IC50 [1] was roughly 8 mM.

B1: truncated squalene synthase (tSqS) (Arabidopsis thaliana) (protein)
chain: MGSLGTMLRYPDDIYPLLKMKRAIEKAEKQIPPEPHWGFCYSMLHKVSRSFSLVIQQLNTELRNAVCVFYLVLRALDTVEDDTSIPTDEKVPILIAFHRHIYDTDWHYSCGTKEYKILMDQFHHVSAAFLELEKGYQEAIEEITRRMGAGMAKFICQEVETVDDYDEYCHYVAGLVGLGLSKLFLAAGSEVLTPDWEAISNSMGLFLQKTNIIRDYLEDINEIPKSRMFWPREIWGKYADKLEDLKYEENTNKSVQCLNEMVTNALMHIEDCLKYMVSLRDPSIFRFCAIPQIMAIGTLALCYNNEQVFRGVVKLRRGLTAKVIDRTKTMADVYGAFYDFSCMLKTKVDKNDPNASKTLNRLEAVQKLCRDAGVLQNRKSYVNDKGQP
In the case of B1, the Km [2] is reported as 42 µM.
